The values that follow come from ChEMBL document CHEMBL4418302, “C-myc ligands capable of dimerizing in an aqueous solution, and methods of using same” (2016).

The source made the active and inactive calls. No cut-off for these calls is given here.

Assay [1] addresses Myc proto-oncogene protein (Homo sapiens, UniProt P01106). Put plainly: Binding affinity to recombinant full-length DDK-tagged human c-Myc expressed in HEK293T cells assessed as inhibition of Max/c-Myc protein-protein interaction incubated for 1 hr by ELISA. Format: cell-based.
For assay [2], the system named is K562. Put plainly: Antiproliferative activity against human K562 cells incubated for 3 days by Cell-Titer 96 aqueous one solution cell proliferation assay. Format: functional, cell-based. The note with it: K562, 72 h.
The test system of assay [3] is Daudi. Put plainly: Antiproliferative activity against human Daudi cells incubated for 3 days by Cell-Titer 96 aqueous one solution cell proliferation assay. The note with it: 72 h. Format: functional, cell-based.
For assay [4], the system named is MV4-11. As to the kind of experiment: Antiproliferative activity against human MV411 cells incubated for 3 days by Cell-Titer 96 aqueous one solution cell proliferation assay. Format: functional, cell-based. The note with it: MV4-11, 72 h.
The subject of assay [5] is K562. Put plainly: Antiproliferative activity against human K562 cells up to 30 uM incubated for 3 days by Cell-Titer 96 aqueous one solution cell proliferation assay. Format: functional, cell-based.
Assay [6] deals with Daudi. Put plainly: Antiproliferative activity against human Daudi cells up to 30 uM incubated for 3 days by Cell-Titer 96 aqueous one solution cell proliferation assay. Format: functional, cell-based.
Assay [7] deals with MV4-11. Put plainly: Antiproliferative activity against human MV411 cells up to 30 uM incubated for 3 days by Cell-Titer 96 aqueous one solution cell proliferation assay. Format: functional, cell-based.

Myc proto-oncogene protein, sequence (P01106 whole entry): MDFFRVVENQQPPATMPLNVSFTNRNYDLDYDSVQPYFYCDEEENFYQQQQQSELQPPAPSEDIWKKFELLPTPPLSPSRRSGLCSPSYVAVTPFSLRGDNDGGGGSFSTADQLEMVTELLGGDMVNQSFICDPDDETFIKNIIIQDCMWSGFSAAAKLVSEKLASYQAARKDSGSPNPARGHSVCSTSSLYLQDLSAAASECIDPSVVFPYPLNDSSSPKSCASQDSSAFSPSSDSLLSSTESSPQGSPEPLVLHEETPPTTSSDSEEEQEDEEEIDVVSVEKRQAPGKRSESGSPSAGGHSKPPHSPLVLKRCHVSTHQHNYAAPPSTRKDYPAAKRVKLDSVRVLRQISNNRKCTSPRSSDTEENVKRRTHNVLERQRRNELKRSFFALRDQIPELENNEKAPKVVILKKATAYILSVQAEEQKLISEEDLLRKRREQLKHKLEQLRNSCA

For `CCc1ccc(/C=C2\SC(=O)N(CCNC(=O)[C@H]3C[C@H]4C=C[C@@H]3C4)C2=O)cc1`, in assay [1], the IC50 is above 30 µM.

Consider `NC(=O)c1ccccc1Nc1ccc([N+](=O)[O-])c2nonc12`, for which, in assay [1], the IC50 was above 30 µM.

With `CCc1ccc(/C=C2\SC(=O)N(CCNC(=O)[C@H]3C[C@@H]4C[C@H]3[C@@H](O)[C@H]4O)C2=O)cc1`, the IC50 (in the assay with K562 [2]; in the assay with Daudi [3]; with MV4-11 [4]; in assay [1]) was above 30 µM in each case. Further, the result in the assay on K562 [5], with Daudi [6] and with MV4-11 [7] was inactive.

Take `O=C(NCc1ccc(B(O)O)cc1)c1ccc(Nc2ccc([N+](=O)[O-])c3nonc23)cc1`: the outcome in the assay with K562 [5], in the assay with Daudi [6] and in the assay on MV4-11 [7] was inactive.

Consider `CCc1ccc(/C=C2\SC(=O)NC2=O)cc1`, for which the IC50 in assay [1] is above 30 µM.

For `O=C(NCc1ccc(B(O)O)cc1)c1ccccc1Nc1ccc([N+](=O)[O-])c2nonc12`, the IC50 (in the assay with K562 [2]; in the assay on Daudi [3]; in the assay on MV4-11 [4]; in assay [1]) was above 30 µM throughout. Moreover, the outcome in the assay with K562 [5], in the assay on Daudi [6] and with MV4-11 [7] was inactive.

On to `CCc1ccc(/C=C2\SC(=O)N(CC[C@H]3C[C@H]4C=C[C@@H]3C4)C2=O)cc1` (single isomer, unassigned), for which the IC50 in assay [1] was above 30 µM.

Regarding `O=C(NCc1cccc(B(O)O)c1)c1ccccc1Nc1ccc([N+](=O)[O-])c2nonc12`, the IC50 with K562 [2], with Daudi [3] and in the assay with MV4-11 [4] was above 30 µM throughout. Also, the result in the assay with K562 [5], with Daudi [6] and with MV4-11 [7] was inactive.

As to `CCc1ccc(/C=C2\SC(=O)N(CC[C@H]3C[C@@H]4C[C@H]3[C@@H](O)[C@H]4O)C2=O)cc1`, the IC50 in assay [1] was above 30 µM.
